Data published in the NIST ThermoML archive (doi:10.1016/j.tca.2016.07.005).

Assay: xn = mol fraction of the nth substance listed
Settings: 101.3 kPa, Liquid; for viscosity: Concentric cylinders viscometry; for mass density: Vibrating tube method

O=S1(=O)CCCC1 [sulfolane] + OCC(O)CO
Settings | mass density [kg/m3] | viscosity [mPa·s]
313.15 K, x2 = 0 | 1251.7 | 8.1
313.15 K, x2 = 0.1002 | 1249.6 | 8.5
313.15 K, x2 = 0.2002 | 1248.8 | 10.5
313.15 K, x2 = 0.3002 | 1248.4 | 14.4
313.15 K, x2 = 0.4001 | 1247.8 | 19.2
313.15 K, x2 = 0.5001 | 1247.5 | 30.4
313.15 K, x2 = 0.5999 | 1247.5 | 46.2
313.15 K, x2 = 0.6999 | 1247.5 | 70.7
313.15 K, x2 = 0.7999 | 1248.5 | 101
313.15 K, x2 = 0.8993 | 1248.9 | 164
323.15 K, x2 = 0 | 1244 | 6.4
323.15 K, x2 = 0.1002 | 1240.9 | 7.2
323.15 K, x2 = 0.2002 | 1240.1 | 8.5
323.15 K, x2 = 0.3002 | 1239.7 | 11.2
323.15 K, x2 = 0.4001 | 1239.2 | 14.4
323.15 K, x2 = 0.5001 | 1239.1 | 22
323.15 K, x2 = 0.5999 | 1239.2 | 32.2
323.15 K, x2 = 0.6999 | 1239.7 | 45.9
323.15 K, x2 = 0.7999 | 1241.2 | 66.5
323.15 K, x2 = 0.8993 | 1241.9 | 103
333.15 K, x2 = 0 | 1235.4 | 5.2
333.15 K, x2 = 0.1002 | 1232.1 | 5.8
333.15 K, x2 = 0.2002 | 1231.3 | 6.6
333.15 K, x2 = 0.3002 | 1231 | 8.3
333.15 K, x2 = 0.4001 | 1230.7 | 10.4
333.15 K, x2 = 0.5001 | 1230.7 | 14.6
333.15 K, x2 = 0.5999 | 1231.1 | 20.3
333.15 K, x2 = 0.6999 | 1232 | 28.8
333.15 K, x2 = 0.7999 | 1233.7 | 41.8
333.15 K, x2 = 0.8993 | 1234.8 | 61.7
343.15 K, x2 = 0 | 1225 | 4.3
343.15 K, x2 = 0.1002 | 1223.2 | 4.7
343.15 K, x2 = 0.2002 | 1222.5 | 5.3
343.15 K, x2 = 0.3002 | 1222.3 | 6.3
343.15 K, x2 = 0.4001 | 1222.3 | 7.7
343.15 K, x2 = 0.5001 | 1222.7 | 10.2
343.15 K, x2 = 0.5999 | 1223.3 | 13.6
343.15 K, x2 = 0.6999 | 1224.1 | 18.5
343.15 K, x2 = 0.7999 | 1226.2 | 26.6
343.15 K, x2 = 0.8993 | 1227.5 | 38
353.15 K, x2 = 0 | 1215 | 3.7
353.15 K, x2 = 0.1002 | 1214.3 | 3.9
353.15 K, x2 = 0.2002 | 1213.7 | 4.3
353.15 K, x2 = 0.3002 | 1213.6 | 4.9
353.15 K, x2 = 0.4001 | 1213.8 | 6
353.15 K, x2 = 0.5001 | 1214.4 | 7.4
353.15 K, x2 = 0.5999 | 1215.3 | 9.8
353.15 K, x2 = 0.6999 | 1216.1 | 12.9
353.15 K, x2 = 0.7999 | 1218.5 | 18
353.15 K, x2 = 0.8993 | 1220.2 | 24.9
363.15 K, x2 = 0 | 1206 | 3.2
363.15 K, x2 = 0.1002 | 1205.3 | 3.3
363.15 K, x2 = 0.2002 | 1204.8 | 3.5
363.15 K, x2 = 0.3002 | 1204.8 | 4
363.15 K, x2 = 0.4001 | 1205.1 | 4.7
363.15 K, x2 = 0.5001 | 1205.9 | 5.8
363.15 K, x2 = 0.5999 | 1206.9 | 7.4
363.15 K, x2 = 0.6999 | 1208 | 9.4
363.15 K, x2 = 0.7999 | 1210.7 | 12.7
363.15 K, x2 = 0.8993 | 1212.7 | 17.1
